Earlier results on two compounds are cited in patent publication US20100047341A1, “COMBINED PREPARATION FOR THE TREATMENT OF CARDIOVASCULAR DISEASES BASED ON CHRONOTHERAPY THEORY” (HANALL PHARMACEUTICAL CO., LTD., priority 2006, published 2010).

For `CCCCc1nc(Cl)c(C(=O)O)n1Cc1ccc(-c2ccccc2-c2nn[nH]n2)cc1` [losartan carboxylate], where the note is “after the conversion of losartan in the liver”, the “time to maximum plasma concentration” value was 3 to 4 h.

As to `CCCCc1nc(Cl)c(CO)n1Cc1ccc(-c2ccccc2-c2nn[nH]n2)cc1` [Losartan, 2-butyl-4chloro-1-[p-(o-1H-tetrazol-5-ylphenyl)benzyl]imidazole-5-methanol], the “time to maximum level in blood” value (losartan itself as active form released from the liver to blood) is listed as “an hour”.
